Experimental data taken from patent US9487504B2, “Imidazolyl analogs as syk inhibitors” (Merck Sharp & Dohme Corp., priority 2012, dated 2016).

Molecular target: T1, recombinant human GST-Syk (Homo sapiens, UniProt P43405)
T1 construct: purchased Carna Biosciences 08-176
Experiment: Homogeneous Time-Resolved Fluorescence (HTRF) assay for the recombinant human Syk enzyme
Type: biochemical
Settings: ATP 25 μM, 10-dose titration, read-out: rhSYK Activity
Experimental: Syk inhibition may be determined using the following assay protocol:
Homogeneous Time-Resolved Fluorescence (HTRF) Assay for the Recombinant Human Syk Enzyme:
A recombinant GST-hSyk fusion protein was used to measure potency of compounds to inhibit human Syk activity. The recombinant human GST-Syk (Carna Biosciences #08-176) ([…]) was incubated with various concentrations of the inhibitor diluted in DMSO (0.1% final concentration) for 10 minutes at room temperature in 15 mM Tris-HCl (pH 7.5), 0.01% tween 20, 2 mM DTT in 384 well plate format. To initiate the reaction the biotinylated substrate peptide (250 nM final concentration) that contains the phosphorylation site for Syk was added with magnesium (5 mM final concentration) and ATP (25 μM final concentration). Final volume of the reaction was 10 μL. Phosphorylation of the peptide was allowed to proceed for 45 minutes at room temperature. To quench the reaction and detect the phosphorylated product, 2 nM of a Europium-anti-phosphotyrosine antibody (Perkin Elmer #AD0161) and 70 nM SA-APC (Perkin-Elmer #CR130-100) were added together in 15 mM Tris pH 7.5, 40 mM EDTA, 0.01% tween 20. Final volume of the quenching solution was 10 μL. The resulting HTRF signal was measured after 30 minutes on an EnVision (Perkin-Elmer) reader using a time-resolved fluorescence protocol. IC50 was determined following 10-dose titration (10 μM to 0.508 nM) and four parameter logistic curve fitting using the Merck Assay Data Analyzer. The rhSyk activity (IC50) is expressed as +++ (100 nM or less), ++ (between 100 and 1000 nM), + (between 1 and 10 μM).

IC50 | Compound
≤ 100 nM | COC(=O)C[C@H]1CC[C@@](O)(c2cn(-c3cc(C)cc(Nc4nccc(C(F)(F)F)n4)c3)cn2)CC1 [Example 17, Methyl {trans-4-hydroxy-4-[1-(3-methyl-5-{[4-(trifluoromethyl)pyrimidin-2-yl]amino}phenyl)-1H-imidazol-4-yl]-cyclohexyl}acetate]
≤ 100 nM | CCOC(=O)[C@H]1CC[C@](O)(c2cn(-c3cc(C)cc(Nc4cc(C(F)(F)F)ccn4)n3)cn2)CC1 [Example 29, Ethyl cis-4-hydroxy-4-[1-(4-methyl-6-{[4-(trifluoromethyl)pyridin-2-yl]amino}pyridin-2-yl)-1H-imidazol-4-yl]cyclohexane-carboxylate]
≤ 100 nM | Cc1cc(Nc2nccc(C(F)(F)F)n2)cc(-n2cnc([C@]3(O)CC[C@H](O)[C@@H](C)C3)c2)c1 [Example 54, (1S,3S,4S)-3-methyl-1-[1-(3-methyl-5-{[4-(trifluoromethyl)pyrimidin-2-yl]amino}phenyl)-1H-imidazol-4-yl]cyclohexane-1,4-diol]
≤ 100 nM | Cc1cc(Nc2nccc(C)n2)cc(-n2cnc(C(C)(O)[C@H]3CC[C@H](C(=O)O)CC3)c2)c1 (relative stereo) [Example 9, trans-4-[1-hydroxy-1-(1-{3-methyl-5-[(4-methyl-pyrimidin-2-yl)amino]-phenyl}-1H-imidazol-4-yl)ethyl]cyclohexane-carboxylic acid]
≤ 100 nM | Cc1cc(Nc2cc(C(F)(F)F)ccn2)nc(-n2cnc(C(C)(C)O)c2)c1 [Example 92, 2-[1-(4-methyl-6-{[4-(trifluoromethyl)pyridin-2-yl]amino}pyridin-2-yl)-1H-imidazol-4-yl]propan-2-ol]
≤ 100 nM | Cc1ccnc(Nc2cc(C)cc(-n3cnc([C@]4(O)CC[C@@H](O)CC4)c3)n2)c1 [Example 46, cis-1-(1-{4-methyl-6-[(4-methylpyridin-2-yl)amino]pyridin-2-yl}-1H-imidazol-4-yl)cyclohexane-1,4-diol]
≤ 100 nM | Cc1cc(Nc2nccc(C(F)(F)F)n2)cc(-n2cnc(C3(O)CCC(C(=O)N4CCCC4)CC3)c2)c1 (stereo not drawn) [Example 31, cis-1-[1-(3-methyl-5-{[4-(trifluoromethyl)pyrimidin-2-yl]amino}phenyl)-1H-imidazol-4-yl]-4-(pyrrolidin-1-ylcarbonyl)cyclohexanol]
≤ 100 nM | Cc1cc(Nc2cc(C(F)(F)F)ccn2)nc(-n2cnc([C@]3(O)CC[C@@H](OC(=O)c4ccccc4)CC3)c2)c1 [Example 64, cis-4-hydroxy-4-[1-(4-methyl-6-{[4-(trifluoromethyl)pyridin-2-yl]amino}pyridin-2-yl)-1H-imidazol-4-yl]cyclohexyl benzoate]
≤ 100 nM | OC(c1cn(-c2cccc(Nc3cc(Cl)ccn3)n2)cn1)(C1CC1)C1CC1 [Example 81, (1-{6-[(4-chloropyridin-2-yl)amino]pyridin-2-yl}-1H-imidazol-4-yl)(dicyclopropyl)-methanol]
100 to 1000 nM | CCOC(=O)C1(C)CC=C(c2cn(-c3cc(C)cc(Nc4nccc(C(F)(F)F)n4)c3)cn2)CC1 (racemic) [Example 19, Ethyl 1-methyl-4-[1-(3-methyl-5-{[4-(trifluoromethyl)-pyrimidin-2-yl]amino}-phenyl)-1H-imidazol-4-yl]cyclohex-3-ene-1-carboxylate]
≤ 100 nM | Cc1cc(Nc2cc(C(F)(F)F)ccn2)nc(-n2cnc([C@]3(O)CC[C@H](CC(=O)O)CC3)c2)c1 [Example 13, {trans-4-hydroxy-4-[1-(4-methyl-6-{[4-(trifluoromethyl)pyridin-2-yl]amino}pyridin-2-yl)-1H-imidazol-4-yl]cyclohexyl}acetic acid]
≤ 100 nM | Cc1cc(Nc2nccc(C(F)(F)F)n2)cc(-n2cnc(C3(O)CCC(O)CC3)c2)c1 (stereo not drawn) [Example 65, trans-1-[1-(3-methyl-5-{[4-(trifluoromethyl)pyrimidin-2-yl]amino}phenyl)-1H-imidazol-4-yl]cyclohexane-1,4-diol]

Same assay, conditions: ATP 25 μM, 10-dose titration, read-out: rhSYK IC50

IC50 | Compound
15 nM | Cc1cc(Nc2nccc(C)n2)cc(-n2cnc(C(C)(O)[C@H]3CC[C@H](C(=O)O)CC3)c2)c1 (relative stereo) [Example 9, trans-4-[1-hydroxy-1-(1-{3-methyl-5-[(4-methyl-pyrimidin-2-yl)amino]-phenyl}-1H-imidazol-4-yl)ethyl]cyclohexane-carboxylic acid]
